{
  "source": "patent US6518035B1",
  "about": "“Targeted methods of drug screening using co-culture methods” (Rosetta Inpharmatics, Inc., priority 1998, dated 2003)",
  "key": {"[1]": {"tested_on": "yeast target and decoy cells", "assay": "Growth (O.D.600) of the target/decoy yeast co-cultures in the MicroSource library screen", "assay_type": "cell-based, Saccharomyces cerevisiae", "settings": "both concentrations (5 μg/ml and 0.5 μg/ml)", "experimental": "The plates were incubated at 30° C."}, "Erg11p": {"target": "Erg11p (Saccharomyces cerevisiae, UniProt P10614)", "sequence (P10614 whole entry)": "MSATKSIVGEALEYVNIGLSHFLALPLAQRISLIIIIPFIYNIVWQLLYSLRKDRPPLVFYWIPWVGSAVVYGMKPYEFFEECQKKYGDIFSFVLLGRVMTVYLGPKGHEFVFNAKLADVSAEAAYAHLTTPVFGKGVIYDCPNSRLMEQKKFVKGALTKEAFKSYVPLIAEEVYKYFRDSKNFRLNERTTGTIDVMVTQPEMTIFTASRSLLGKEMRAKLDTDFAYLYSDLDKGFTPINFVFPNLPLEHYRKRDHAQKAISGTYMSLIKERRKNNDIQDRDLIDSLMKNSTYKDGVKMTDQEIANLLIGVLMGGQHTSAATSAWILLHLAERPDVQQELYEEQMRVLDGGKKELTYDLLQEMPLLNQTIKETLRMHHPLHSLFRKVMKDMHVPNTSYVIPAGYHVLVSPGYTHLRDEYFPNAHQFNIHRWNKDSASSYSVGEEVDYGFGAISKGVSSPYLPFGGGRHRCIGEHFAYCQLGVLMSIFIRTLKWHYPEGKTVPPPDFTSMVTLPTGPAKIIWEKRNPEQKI", "settings": "25 target and 25,000 decoy cells (1:1000), 225 μl, 30° C., up to ten days", "method": "Target yeast cells overexpressing the ERG11 gene and GFP were mixed with decoy cells at a ratio of 1:1000 and portioned into 96-well plates. Each well contained 25 target cells and 25,000 decoy cells in 0.225 ml YM medium plus 2% casamino acids. 560 generic drugs from the MicroSource™ library were dispensed to each well to a final concentration of 5 μg/ml or 0.5 μg/ml and 1% DMSO. The plates were incubated at 30° C. for ten days.\nTo determine the specificity of the TDS assay, a chemical library of 560 compounds was screened using the same strains described in FIG. 2. […] The conditions chosen for the co-culture were 25 target cells and 25,000 decoy cells (1:1000 target: decoy ratio) in a volume of 225 μl.\nOvernight cultures of the target and decoy cells were grown in YM medium plus 2% casamino acids to maintain selection for both episomal plasmids. One large batch of fresh medium (YM-Cas) was prepared that contained both target and decoy cells. This culture was diluted to 1×10^5 cells/ml and dispensed into the 96-well plates. Drugs from the Microsource library were then added to the cultures at two concentrations: 5 μg/ml plus 1% DMSO; and 0.5 μg/ml plus 0.1% DMSO. The plates were incubated at 30° C. Fluorescence and O.D.600 measurements were taken twice daily for ten days."}, "[2]": {"target": "T1, ERG11 gene product, lanosterol 14α-demethylase (Saccharomyces cerevisiae, UniProt P10614)", "T1 construct": "expressed in transfected cells; host or cells: S. cerevisiae target strain ABY676 (plasmids pAB98 GFP, pAB99 ERG11), co-cultured with decoy strain ABY674 (empty vectors YEplac195, YEplac112)", "T1 sequence (P10614 whole entry)": "as above", "assay": "TDS co-culture pilot study with clotrimazole: ERG11/GFP-overexpressing target cells mixed with decoy cells, fluorescence readout", "assay_type": "cell-based", "settings": "30° C., 88 h", "experimental": "FIG. 2: A Signal to noise ratios of ERG11-target and decoy co-cultures grown in the presence of clotrimazole. Cultures were prepared at various ratios of target: decoy cells (columns). Each ratio was also prepared at various total number of cells per well and are indicated at the top. Clotrimazole, which inhibits the ERG11 gene product, was introduced by serial dilution (rows). The concentrations of clotrimazole are indicated to the left of the table. The volume of medium in each well was 0.225 ml. The plate was allowed to incubate at 30° C. for 88 h. Fluorescence signal was determined by subtracting the fluorescent values from a medium control plate from the fluorescence values of each well in the test plate. Signal to noise ratios were determined by dividing these corrected values with the corresponding values in the no-drug well in the bottom row. B O.D.600 values of co-cultures in each well after growth. C A fluorescent image of the source plate.\nTo determine the optimal assay conditions, various target:decoy ratios were tested in the presence of different clotrimazole concentrations (FIG. 2). Clotrimazole is an anti-fungal compound that inhibits the […] gene product, lanosterol 14α-demethylase, a sterol biosynthetic enzyme (Georgopapadakou and Walsh, 1996, Antimicrob Agents Chemother 40:279-291). […]\nTarget and decoy cells were mixed at 1:10, 1:100 and 1:1000 ratios in the presence of various concentrations of clotrimazole. […] Following incubation at 30° C. for 88 h, the fluorescence from each well was determined. The fluorescent values were corrected for the background fluorescence of the medium are represented as the fold increase over the fluorescent signal from the corresponding no-drug treatment.\nThe amount of growth of the cells was determined by measuring optical density at 600 nm in a Molecular Devices Spectra Max 250 plate spectrophotometer (FIG. 2B). A fluorescent image of the plate, which served as the source for quantitation of the fluorescent signals, is also presented (FIG. 2C)."}},
  "note": "Structures can show the parent of a compound that is named as a salt. Where two headings read alike, the source gives them in different places.",
  "data": [
    {"smiles": "CN[C@@H](C)[C@H](O)c1ccccc1", "note": "[ephedrine-HCl]", "values": [
      {"measurement": "growth inhibition of co-culture", "setting": "[1]", "result": "severely inhibited growth"}
    ]},
    {"smiles": "CCCCOc1ccc(C(=O)CCN2CCCCC2)cc1", "note": "[dyclonine-HCl]", "values": [
      {"measurement": "growth inhibition of co-culture", "setting": "[1]", "result": "severely inhibited growth"}
    ]},
    {"smiles": "Clc1ccc(COC(Cn2ccnc2)c2ccc(Cl)cc2Cl)c(Cl)c1", "note": "(stereo not drawn) [miconazole]", "values": [
      {"measurement": "fluorescent signal of co-culture versus no-drug treatment", "setting": "Erg11p; 0.5 μg/ml drug plus 0.1% DMSO", "result": "significant positive signals"},
      {"measurement": "fluorescent signal of co-culture versus no-drug treatment", "setting": "Erg11p; 5 μg/ml drug plus 1% DMSO", "result": "too severe a growth inhibition to produce positive signals"}
    ]},
    {"smiles": "CC(=O)N1CCN(c2ccc(OCC3COC(Cn4ccnc4)(c4ccc(Cl)cc4Cl)O3)cc2)CC1", "note": "(stereo not drawn) [ketoconazole]", "values": [
      {"measurement": "fluorescent signal of co-culture versus no-drug treatment", "setting": "Erg11p; 0.5 μg/ml drug plus 0.1% DMSO", "result": "neither inhibited growth nor produced a positive signal"},
      {"measurement": "fluorescent signal of co-culture versus no-drug treatment", "setting": "Erg11p; 5 μg/ml drug plus 1% DMSO", "result": "significant signal"}
    ]},
    {"smiles": "C[CH2][Hg][S]c1ccccc1C(=O)[O-].[Na+]", "note": "[thimerosol]", "values": [
      {"measurement": "growth inhibition of co-culture", "setting": "[1]", "result": "severely inhibited growth"}
    ]},
    {"smiles": "Clc1ccccc1C(c1ccccc1)(c1ccccc1)n1ccnc1", "note": "[clotrimazole]", "values": [
      {"measurement": "clotrimazole concentration range producing significant fluorescent signals", "setting": "[2]; 1:10 and 1:100 target:decoy ratios, highest density of cells per well", "result": "0.2 to 5.6", "unit": "µg/mL"},
      {"measurement": "clotrimazole concentration range producing significant fluorescent signals", "setting": "[2]; 1:10 and 1:100 target:decoy ratios, serial dilutions of cells", "result": "0.2 to 2.8", "unit": "µg/mL"},
      {"measurement": "clotrimazole concentration range producing significant fluorescent signals", "setting": "[2]; 1:1000 target:decoy ratio, each of the cell densities", "result": "0.2 to 5.6", "unit": "µg/mL"},
      {"measurement": "fluorescent signal of co-culture versus no-drug treatment", "setting": "Erg11p; 0.5 μg/ml drug plus 0.1% DMSO", "result": "significant fluorescent signal"},
      {"measurement": "fluorescent signal of co-culture versus no-drug treatment", "setting": "Erg11p; 5 μg/ml drug plus 1% DMSO", "result": "significant fluorescent signal"}
    ]}
  ]
}
